In patent US11136409B2, “Compositions and methods for identification, assessment, prevention, and treatment of AML using USP10 biomarkers and modulators” (Dana-Farber Cancer Institute, Inc., priority 2016, dated 2021):

Tests used:
[1] = molecular target: USP10 (Homo sapiens, UniProt Q14694); experiment: MALDI TOF DUB assay with diubiquitin substrate; assay type: biochemical; details: diubiquitin (K11) as substrate
Procedure: Thirty-one human DUBs were freshly diluted in the reaction buffer (40 mM Tris-HCl, pH 7.6, 5 mM DTT, 0.005% BSA) at different concentrations (see Table 10). […] The enzymes were pre-incubated with the compounds for 30 min at room temperature at 10 μM final concentration. 0.48 μl of di-ubiquitin topoisomers were added to the reaction mixture to initiate the reaction. The reaction was sealed and incubated for 30 min at room temperature and stopped by adding TFA to a final concentration of 2% (v/v).
Mass spectrometry data was acquired on an UltrafleXtreme MALDI-TOF mass spectrometer (Bruker Daltonics) with Compass 1.3 control and processing software. The sample carrier was taught before each analysis to optimize and centre laser shooting. […] Samples were analysed in automatic mode (AutoXecute, Bruker Daltonics). […] An amount of 3,500 shots were summed up in “random walk” and with “large” smartbeam laser focus. Spectra were automatically calibrated on the ^15N-Ub m/z and processed using smoothing (Savitzky-Golay algorithm) and baseline subtraction (‘TopHat’) for reproducible peak annotation on non-resolved isotope distributions: one cycle, 0.2 m/z for the width. For area calculation, the complete isotopic distribution was taken into account. […]

[2] = system: Ba/F3-FLT3-ITD cells; experiment: Proliferation of Ba/F3-FLT3-ITD cells; assay type: cell-based, murine
From the text: Nomo-1, P31-FUJ, and NB4 were obtained from Dr. Gary Gilliland. MV4, 11 cells were obtained from Dr. Anthony Letai. Hel, K562, THP, U937, TF-1 and K052 cells were purchased from the American Type Culture Collection (ATCC) (Manassas, Va., USA). […] Cell lines were submitted for cell line authentication and were authenticated within 6 months of manuscript preparation through cell line short tandem repeat (STR) profiling (DDC Medical, Fairfield, Ohio and Molecular Diagnostics Laboratory, Dana Farber Cancer Institute). […] PBMCs were generously provided by Dr. Steven Treon and Dr. Guang Yang.
The CellTiter-Glo® assay (Promega, Madison, Wis.) was used for proliferation studies and carried out according to manufacturer instructions. Cell viability is reported as percentage of control (untreated) cells, and error bars represent the standard error of the mean for each data point.

[3] = system: Ba/F3-D835Y cells; experiment: Immunoblot of FLT3 in Ba/F3-D835Y cells; assay type: cell-based, murine
From the text: FLT3/Flk-2 (C-20) (sc-479) and Ub (P4D1) (mouse, sc-8017) were purchased from Santa Cruz Biotechnology, Inc. (Dallas, Tex.) and used at 1:1000 dilution for immunoblotting. Anti-pTyr (mouse, clone 4G10) was purchased from Upstate Biotechnology (Lake Placid, N.Y.) and was used at 1:1000 dilution. Anti-HAUSP/USP7 antibody (rabbit, ab4080) and anti-ubiquitin antibody (rabbit, ab7780) were purchased from Abcam (Cambridge, Mass.) and used at 1:1000 dilution.
Protein lysate preparation, immunoblotting, and immunoprecipitation were carried out as previously described in Weisberg et al. (2002) Cancer Cell 1:433-443.

[4] = system: Ba/F3-D835Y cells

USP10, sequence (Q14694 whole entry): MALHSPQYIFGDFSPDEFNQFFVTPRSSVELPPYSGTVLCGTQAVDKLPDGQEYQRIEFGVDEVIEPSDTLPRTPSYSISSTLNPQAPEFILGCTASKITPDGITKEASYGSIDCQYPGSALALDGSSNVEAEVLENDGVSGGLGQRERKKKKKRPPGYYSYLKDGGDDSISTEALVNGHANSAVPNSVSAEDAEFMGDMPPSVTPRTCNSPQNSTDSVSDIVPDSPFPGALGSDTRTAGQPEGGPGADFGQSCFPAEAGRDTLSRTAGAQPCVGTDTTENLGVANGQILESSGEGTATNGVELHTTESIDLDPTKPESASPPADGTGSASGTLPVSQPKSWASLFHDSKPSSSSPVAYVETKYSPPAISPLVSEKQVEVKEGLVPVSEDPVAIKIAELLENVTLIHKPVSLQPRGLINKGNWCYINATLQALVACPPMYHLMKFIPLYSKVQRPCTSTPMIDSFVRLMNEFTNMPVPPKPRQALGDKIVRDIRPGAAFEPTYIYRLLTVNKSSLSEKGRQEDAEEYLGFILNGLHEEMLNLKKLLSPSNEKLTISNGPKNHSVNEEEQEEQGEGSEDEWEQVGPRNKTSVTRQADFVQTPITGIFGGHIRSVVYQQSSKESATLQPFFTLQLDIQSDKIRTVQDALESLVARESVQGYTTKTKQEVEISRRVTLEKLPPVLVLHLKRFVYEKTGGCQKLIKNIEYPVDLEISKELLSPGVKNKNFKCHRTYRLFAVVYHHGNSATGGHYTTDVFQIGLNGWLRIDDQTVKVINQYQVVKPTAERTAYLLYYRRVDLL

CN(CCCNC(=O)c1ccc2nc3c(c(Cl)c2c1)CCCC3)Cc1ccccc1 [HBX19818, reference compound]
IC50 [1]: 14 µM | Proliferation EC50 [2]: single digit micromolar range | FLT3 protein levels [3]: more modest loss of FLT3 protein | Proliferation EC50 [4]: single digit micromolar range
